For the experiment, the target named is Non-receptor tyrosine-protein kinase TYK2 (Homo sapiens, UniProt P29597). Nature of the experiment: Binding Assay: Binding constants for compounds of the present invention against the JH2 domain were determined by the following protocol for a KINOMEscan® assay (DiscoveRx). A fusion protein of a partial length construct of human TYK2 (JH2domain-pseudokinase) (amino acids G556 to D888 based on reference sequence NP_003322.3) and the DNA binding domain of NFkB was expressed in transiently transfected HEK293 cells. From these HEK 293 cells, extracts were prepared in M-PER extraction buffer (Pierce) in the presence of Protease Inhibitor Cocktail Complete (Roche) and Phosphatase Inhibitor Cocktail Set II (Merck) per manufacturers' instructions. The TYK2 (JH2domain-pseudokinase) fusion protein was labeled with a chimeric double-stranded DNA tag containing the NFkB binding site (5′-GGGAATTCCC-3′) fused to an amplicon for qPCR readout, which was added directly to the expression extract (the final concentration of DNA-tag in the binding reaction is 0.1 nM). Type of experiment: cell-based. (In general: In qPCR the cycle at which signal appears reflects the starting amount.)
Sequence of Non-receptor tyrosine-protein kinase TYK2 (P29597 whole entry, the tested form may be a part): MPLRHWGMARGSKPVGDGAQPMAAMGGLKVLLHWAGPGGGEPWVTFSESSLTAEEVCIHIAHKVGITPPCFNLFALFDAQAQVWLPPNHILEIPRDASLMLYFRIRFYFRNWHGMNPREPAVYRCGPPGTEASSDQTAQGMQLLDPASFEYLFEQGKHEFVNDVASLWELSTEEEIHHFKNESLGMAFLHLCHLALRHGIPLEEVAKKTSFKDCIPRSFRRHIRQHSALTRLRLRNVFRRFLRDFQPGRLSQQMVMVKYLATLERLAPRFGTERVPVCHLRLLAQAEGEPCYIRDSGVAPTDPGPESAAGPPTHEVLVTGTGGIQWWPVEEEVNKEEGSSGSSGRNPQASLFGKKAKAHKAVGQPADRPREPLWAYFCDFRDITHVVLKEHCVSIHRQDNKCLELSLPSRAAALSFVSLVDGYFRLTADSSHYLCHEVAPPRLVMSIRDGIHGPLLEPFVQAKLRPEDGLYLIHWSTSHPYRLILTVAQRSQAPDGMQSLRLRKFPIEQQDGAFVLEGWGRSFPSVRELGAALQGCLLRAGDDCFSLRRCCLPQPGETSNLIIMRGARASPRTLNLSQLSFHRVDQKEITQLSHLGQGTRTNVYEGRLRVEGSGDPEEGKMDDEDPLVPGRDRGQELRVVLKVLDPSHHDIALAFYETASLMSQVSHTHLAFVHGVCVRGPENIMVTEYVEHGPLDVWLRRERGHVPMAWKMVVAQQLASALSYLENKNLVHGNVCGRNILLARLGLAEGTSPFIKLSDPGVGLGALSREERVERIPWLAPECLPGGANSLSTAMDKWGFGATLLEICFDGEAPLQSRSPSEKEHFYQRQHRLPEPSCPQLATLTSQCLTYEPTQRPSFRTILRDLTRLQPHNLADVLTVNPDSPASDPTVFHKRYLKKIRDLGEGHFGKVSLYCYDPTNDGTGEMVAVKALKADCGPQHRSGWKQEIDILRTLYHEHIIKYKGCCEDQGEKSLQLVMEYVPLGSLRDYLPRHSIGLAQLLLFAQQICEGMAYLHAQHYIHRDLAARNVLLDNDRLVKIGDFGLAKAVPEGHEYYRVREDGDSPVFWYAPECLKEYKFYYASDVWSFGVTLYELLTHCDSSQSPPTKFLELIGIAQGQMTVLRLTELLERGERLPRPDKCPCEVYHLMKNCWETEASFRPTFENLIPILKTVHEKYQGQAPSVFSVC
For the compound `COc1c(Nc2cc(Nc3ccc(C(C)(C)OC)c(C#N)n3)nc3[nH]c(C)nc23)cccc1-c1nnn(C)n1`, the equilibrium dissociation constant (Kd) was > 10 nM.
To `CN(c1cc(-c2cncn2C)ccc1Nc1cc(NC(=O)[C@@H]2C[C@@H]2F)nc2[nH]c(C(F)F)nc12)S(C)(=O)=O` belongs < 0.1 nM.
To `COCCNc1ccc(Nc2cc(Nc3ccccc3N(C)S(C)(=O)=O)c3nc(C)[nH]c3n2)nc1C#N` belongs < 0.1 nM; to `Cn1cncc1-c1ccc(Nc2cc(NC(=O)[C@@H]3C[C@@H]3F)nc3[nH]c(C(F)F)nc23)c(S(C)(=O)=O)c1`, < 0.1 nM.
The result for `Cc1nc2c(Nc3ccc(-c4cnn(C)c4C)cc3S(C)(=O)=O)cc(Nc3cccc(C#N)n3)nc2[nH]1` reads < 0.1 nM.
Regarding `Cc1c(-c2ccc(Nc3cc(NC(=O)C4CC4)nc4[nH]c(C(F)F)nc34)c(S(C)(=O)=O)c2)cnn1C`, the dissociation constant Kd was < 0.1 nM.
The result for `COc1ccccc1Nc1cc(Nc2ccc(N3CCC4(CCOCC4)CC3)cn2)nc2[nH]c(C)nc12` reads > 10 nM.

One may read the Kd as the concentration at which binding is half-saturated.

For the origin of these results see ChEMBL document CHEMBL5727697, “TYK2 inhibitors and uses thereof” (2020).
